From EP4722228A1, “NEW COMPOUND TARGETING MUSK AND USE THEREOF” (The University of Tokyo, priority 2023, dated 2024)
Numbered stars: 1 amine (or outer) side, 2 acyl side, 3 side chain; on linkers, the order of the positions; unused ones are H or OH. Bridge positions count the residues as written; N and C are the ends. Square brackets hold non-standard residues; d marks the D form. Peptide text beside a SMILES is read from it. I, II: the chains in the order shown. X1 = O=C(CCN1C(=O)CC([*:1])C1=O)NCCOCCOCCOCCOCCOCCOCCOCCOCCOCCOCCOCCNC(=O)CCN1C(=O)CC([*:2])C1=O

How the values were obtained:
[1] = test system: C2C12 myotubes (AChR clusters); test: Induction of AChR clusters in myotube cells by the MuSK7 homodimer, with or without AST-487; type: cell-based, mouse; settings: in the presence of AST-487
Text: (§1) The mouse myoblast-derived cell line C2C12 (CRL-1772) was purchased from the American Type Culture Collection and used. For subculture, Dulbecco's Modified Eagle Medium (DMEM, high glucose, GlutaMAX supplement, pyruvate; GIBCO) supplemented with 20% fetal bovine serum (FBS; GIBCO) was used. For passage, after the culture medium was removed by suction, adherent cells were washed with phosphate buffered saline (PBS(-)), and HBSS (GIBCO) containing no Mg^2+ and Ca^2+ and containing 0.25% trypsin and 1 mM ethylenediaminetetraacetic acid was added, and the mixture was reacted in a CO2 incubator (37°C, 5% CO2) for 5 minutes. […]
A differentiation medium supplemented with an appropriate amount of the homodimer of the cyclic peptide MuSK7 (MuSK7 PEG11 dimer) was prepared in advance in a 96-well plate (Nunclon Δ Surface, 167008, Nunc), and used at 100 µL/well at the time of the second medium change in the process of inducing differentiation into myotubes. […] After washing the cells several times with 1% BSA-PBS(-), 100 µL of PBS(-) was added to each well, and fluorescence observation was performed using a fluorescence imaging device. […] During fluorescence image observation, a 10× objective lens was used, and tiff images of an area equivalent to 1 mm^2 were obtained. […] The average number of AChR clusters counted from the three tiff images derived from the same well was calculated and drawn on a graph. […]

[2] = test system: C2C12 myotubes (Agrin-induced AChR clusters); test: Agrin-induced AChR clusters in myotubes with tyrosine kinase inhibitors; type: cell-based, mouse; settings: 10 pM recombinant rat agrin, inhibitor added simultaneously, 20 hours; low concentration range of 1 nM
Text: The mouse myoblast-derived cell line C2C12 (CRL-1772) was purchased from the American Type Culture Collection and used. For subculture, Dulbecco's Modified Eagle Medium (DMEM, high glucose, GlutaMAX supplement, pyruvate; GIBCO) supplemented with 20% fetal bovine serum (FBS; GIBCO) was used. For passage, after the culture medium was removed by suction, adherent cells were washed with phosphate buffered saline (PBS(-)), and HBSS (GIBCO) containing no Mg^2+ and Ca^2+ and containing 0.25% trypsin and 1 mM ethylenediaminetetraacetic acid was added, and the mixture was reacted in a CO2 incubator (37°C, 5% CO2) for 5 minutes. The detached cells were collected and then centrifuged at 1000 rpm at 4°C for 5 minutes (Sorvall X4R Pro, Thermo Fisher Scientific Inc.). After the supernatant was removed by suction, the cells were suspended in fresh culture medium, and 100 µL was seeded into a 96-well plate (BioCoat Collagen I 96-well Black/Clear plate, Corning Inc.) and cultured in a CO2 incubator (37°C, 5% CO2) until reaching confluence, typically within 72 hours. Subsequently, the culture medium was removed and the first medium change was performed with DMEM containing 2% horse serum (GIBCO) for induction of myotube cell differentiation.
A differentiation medium supplemented with an appropriate amount of the homodimer of the cyclic peptide MuSK7 (MuSK7 PEG11 dimer) was prepared in advance in a 96-well plate (Nunclon Δ Surface, 167008, Nunc), and used at 100 µL/well at the time of the second medium change in the process of inducing differentiation into myotubes. 20 hours after addition of the homodimer of the cyclic peptide MuSK7, the medium was removed, the cells were washed with PBS(-), and then fixed at room temperature for 15 minutes with PBS(-) containing 4% formaldehyde. After washing several times with 1% BSA-PBS(-), fluorescently labeled α-bungarotoxin (α-Btx, Alexa Fluor 488 conjugate; Invitrogen) was added to 1% BSA-PBS(-) at a final concentration of 100 nM, and after adding this to the wells, the mixture was allowed to stand at room temperature under a light-shielded condition for 30 minutes. After washing the cells several times with 1% BSA-PBS(-), 100 µL of PBS(-) was added to each well, and fluorescence observation was performed using a fluorescence imaging device. For observation of fluorescently labeled AChR clusters, an EVOS M7000 imaging system (Thermo Fisher Scientific Inc.) was used. During fluorescence image observation, a 10× objective lens was used, and tiff images of an area equivalent to 1 mm^2 were obtained. […] The average number of AChR clusters counted from the three tiff images derived from the same well was calculated and drawn on a graph.
MuSK inhibitor candidates were searched in the KinaseNET database (http://www.kinasenet.ca/) published as an open resource by Kinexus Bioinformatics Corporation (Canada), and three tyrosine kinase inhibitors (AST-487, Foretinib, and Sorafenib) were identified. Next, groups were prepared in which 10 pM recombinant rat agrin protein (550-AG, R&D Systems) derived from C2C12 myotubes was added alone, or in which each tyrosine kinase inhibitor (3 nM) was added simultaneously, and detection and observation of Agrin-induced AChR clusters were performed 20 hours after compound addition (five types, Crizotinib, Linifanib, AST-1306, Dovitinib, and BMS-754807, were used as non-MuSK inhibitory tyrosine kinase inhibitors).

human MuSK = biological target: T1, human MuSK (Homo sapiens, UniProt O15146); test: SPR binding activity test to human MuSK (Biacore); settings: human MuSK, peptide homodimers
T1 construct: DNA corresponding to the extracellular portion (amino acids 1-493) was amplified by a PCR method; made in house; host or cells: Expi293F cells
T1 sequence (O15146 24-493): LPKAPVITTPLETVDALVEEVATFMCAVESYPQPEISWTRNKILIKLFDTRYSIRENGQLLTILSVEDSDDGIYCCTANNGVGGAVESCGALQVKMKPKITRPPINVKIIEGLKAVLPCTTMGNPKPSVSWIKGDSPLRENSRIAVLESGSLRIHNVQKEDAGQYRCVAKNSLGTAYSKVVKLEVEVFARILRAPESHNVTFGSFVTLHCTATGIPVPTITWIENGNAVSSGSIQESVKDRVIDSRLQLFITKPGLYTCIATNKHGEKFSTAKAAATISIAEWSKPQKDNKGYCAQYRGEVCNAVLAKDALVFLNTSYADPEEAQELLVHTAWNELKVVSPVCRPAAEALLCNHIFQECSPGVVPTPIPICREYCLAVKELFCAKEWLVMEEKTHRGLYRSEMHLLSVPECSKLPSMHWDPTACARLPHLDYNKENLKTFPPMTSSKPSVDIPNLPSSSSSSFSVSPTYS
Protocol: The human MuSK protein (extracellular portion) was prepared as a recombinant protein as follows. Using a Flexi clone (FXC31275, Promega Corporation) encoding Human MuSK isoform 1 precursor (NCBI Reference Sequence: NP_005583.1) as a template, DNA corresponding to the extracellular portion (amino acids 1-493) was amplified by a PCR method. XhoI and EcoRI restriction enzyme recognition sequences were added to both the 5' and 3' ends of the amplified DNA sequence, and these were used for insertion into the multiple cloning site of a pCAG-Neo hIgG1-Fc plasmid (Fujifilm Wako Pure Chemical Corporation). This plasmid (pCAG-Neo hMuSK-Fc) enables expression of a chimeric protein of the secretory human MuSK extracellular portion and human IgG1 Fc (hMuSK-Fc; molecular weight of approximately 200 kDa) in animal cells. In practice, ExpiFectamine 293 reagent (Invitrogen) was used to transfect the pCAG-Neo hMuSK-Fc plasmid into Expi293F cells (Invitrogen), and shaking culture was carried out (for 6 days) in an incubator containing 8% CO2. Next, the culture supernatant was collected, centrifuged, and sterilized by filtration through a 0.22 µm filter. The obtained culture supernatant was subjected to Protein G purification, and finally, a purified hMuSK-Fc sample with 99.96% purity (AKTA-FPLC analysis) was obtained.
The strength of binding between MuSK and the cyclic peptides was evaluated by quantitatively measuring the binding kinetics (binding affinity (dissociation constant) KD) of the cyclic peptides to MuSK immobilized on a sensor chip via an Fc tag, using surface plasmon resonance (SPR).
According to the standard immobilization protocol provided by the manufacturer, Fc-tagged human/mouse/rat MuSK was immobilized on a Protein G chip or a Protein A chip (Cytiva). A running buffer for the monomer/dimer peptides contained 0.010 M phosphate, 0.14 M NaCl, 0.0027 M KCl, 0.05% (v/v) Tween 20, and 0.1% (v/v) DMSO. A running buffer for the monomer/dimer U-bodies contained 0.010 M phosphate, 0.14 M NaCl, 0.0027 M KCl, and 0.05% (v/v) Tween 20. A series of concentrations of each monomer peptide, dimer peptide, monomer U-body, and dimer U-body was injected as analytes. A 1:1 binding fitting analysis was applied using Biacore evaluation software, and ka, kd, and KD values were determined.
Fc-tagged human MuSK was prepared according to the procedure described in Example 1(1). In addition, Fc-tagged mouse MuSK was used by expressing a nucleotide sequence encoding the Fc-tagged mouse MuSK extracellular domain (SEQ ID NO: 34). In addition, Fc-tagged rat MuSK was used as a chimeric protein of rat MuSK and an Fc protein, namely, Recombinant Rat MuSK Fc Chimera Protein (catalog number: 9847-MK-050, R&D Systems).
The affinity of the U-bodies and their complexes obtained as described above for MuSK of human, rat, and mouse was evaluated (binding activity test). The test was carried out according to the procedure described in Example 1(3). However, for the complexes of U-bodies, surface plasmon resonance (SPR) analysis was carried out using a Biacore 8K (Cytiva).

[3] = test system: mouse myoblast-derived cell line C2C12; test: Induction of AChR clusters in myotube cells and quantitative analysis (fluorescent α-bungarotoxin); type: cell-based; settings: 20 hours after addition
Text: as §1
After washing several times with 1% BSA-PBS(-), fluorescently labeled α-bungarotoxin (α-Btx, Alexa Fluor 488 conjugate; Invitrogen) was added to 1% BSA-PBS(-) at a final concentration of 100 nM, and after adding this to the wells, the mixture was allowed to stand at room temperature under a light-shielded condition for 30 minutes. After washing the cells several times with 1% BSA-PBS(-), 100 µL of PBS(-) was added to each well, and fluorescence observation was performed using a fluorescence imaging device. […] During fluorescence image observation, a 10× objective lens was used, and tiff images of an area equivalent to 1 mm^2 were obtained. […] The average number of AChR clusters counted from the three tiff images derived from the same well was calculated and drawn on a graph.

## CCN1CCN(Cc2ccc(NC(=O)Nc3ccc(Oc4cc(NC)ncn4)cc3)cc2C(F)(F)F)CC1 [AST-487]
[1]
  AChR cluster formation by the homodimer of the cyclic peptide MuSK7: no AChR clusters were detected
[2]
  Agrin-induced AChR cluster formation: no AChR cluster formation was observed

## CC(C)C[C@@H]1NC(=O)[C@H](CO)NC(=O)[C@H](C)NC(=O)[C@H](C(C)C)NC(=O)[C@H](C(C)C)NC(=O)[C@H](CC(N)=O)NC(=O)[C@H]([C@@H](C)O)NC(=O)[C@H](Cc2c[nH]cn2)NC(=O)[C@H](Cc2ccc(O)cc2)NC(=O)[C@H](CO)NC(=O)[C@@H]2CCCN2C(=O)[C@@H](Cc2ccc(O)cc2)NC(=O)CSC[C@@H](C(=O)N[C@@H](CSC2CC(=O)N(CCC(=O)NCCOCCOCCOCCOCCOCCOCCOCCOCCOCCOCCOCCNC(=O)CCN3C(=O)CC(SC[C@H](NC(=O)[C@@H]4CSCC(=O)N[C@H](Cc5ccc(O)cc5)C(=O)N5CCC[C@H]5C(=O)N[C@@H](CO)C(=O)N[C@@H](Cc5ccc(O)cc5)C(=O)N[C@@H](Cc5c[nH]cn5)C(=O)N[C@@H]([C@@H](C)O)C(=O)N[C@@H](CC(N)=O)C(=O)N[C@@H](C(C)C)C(=O)N[C@@H](C(C)C)C(=O)N[C@@H](C)C(=O)N[C@@H](CO)C(=O)N[C@@H](CC(C)C)C(=O)N[C@@H](CCCCN)C(=O)N[C@@H](CCCNC(=N)N)C(=O)N4)C(N)=O)C3=O)C2=O)C(N)=O)NC(=O)[C@H](CCCNC(=N)N)NC(=O)[C@H](CCCCN)NC1=O (stereo partly shown) [MuSK7 PEG11 dimer] (I: {CH2CO}-[dY]PSYHTNVVASLKRCC-NH2 / II: {CH2CO}-[dY]PSYHTNVVASLKRCC-NH2; linker I:16-II:16 via X1; thioether I:N-I:15, II:N-II:15)
Human MuSK
  koff: 0.00051 s⁻¹
  kon: 390000 M⁻¹ s⁻¹
Human MuSK; read-out: Kd
  Kd: 1.3 nM
[3]; compound concentration exceeded 1 µM
  number of AChR clusters: conversely tended to decrease
[3]; concentration range from the pM order to 1 µM
  number of AChR clusters: increased in a dose-dependent manner
